Measured values from US12215111B2, “Imidazopyridazine IL-17 inhibitor compounds” (Janssen Pharmaceutica NV, priority 2021, dated 2025).

How the values were obtained:
[1] = tested on: IL-17A-induced G-CSF production in human normal keratinocyte (NHK); test: NHK assay: IL-17A-induced G-CSF production in normal human keratinocytes; type: cell-based; details: IL-17A 5 ng/mL, 24 h at 37° C., G-CSF by HTRF, simple average if tested more than once
Description: IL-17A acts directly on keratinocytes through binding to dimeric receptor IL-17RA/RC and drives the production of a number of inflammatory mediators known to be elevated in psoriasis lesional tissue. IL-17A small molecule inhibitors that block the IL-17A to interact with IL-17R would inhibit the IL-17A signaling in its targeted cells such as keratinocytes. The compound functional activity is evaluated for its impact on IL-17A-induced G-CSF production in human normal keratinocyte (NHK).
Adult normal human keratinocytes are cultured in keratinocyte growth medium (Lonza) in a flask till reaching ˜90% confluence, then cells are transferred to a 384-well plate at density of 3000-4000 cell/well. Recombinant human IL-17A (Gibco PHC9174) is pre-incubated with titrated compound or DMSO for 1 h at rt then added to the cell culture plate. The final concentration of IL-17A is 5 ng/mL and DMSO is 0.2%, in the culture containing 5% FBS. Cells are cultured/treated for 24 h at 37° C. Supernatants are collected and G-CSF production is measured through HTRF technology using Human G-CSF Kit (CisBio). G-CSF concentration was extrapolated from the standard curve and IC50 is determined using GraphPad Prism. Cell viability is also evaluated using CellTiter-Glo kit (Promega) and effect of compound on cell viability is compared to DMSO control.

[2] = target: T1, IL-17A(FLAG-Tagged): IL-17RA(His-Tagged) (Homo sapiens, UniProt Q16552, K93Q); test: IL-17A(FLAG-tagged):IL-17RA(His-tagged) binding disruption Eu-HTRF assay, Protocol 2; details: FLAG tagged IL-17A at 2× final concentration (1 nM); simple average if tested more than once
T1 sequence (Q16552 with tags, fused parts or gaps K93Q): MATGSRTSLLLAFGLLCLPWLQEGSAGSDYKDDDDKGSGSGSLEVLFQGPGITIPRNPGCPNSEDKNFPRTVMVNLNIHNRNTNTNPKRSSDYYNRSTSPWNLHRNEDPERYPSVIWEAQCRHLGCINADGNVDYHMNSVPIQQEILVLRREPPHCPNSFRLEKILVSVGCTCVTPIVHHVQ
Description: (§1) IL-17A(FLAG-Tagged): IL-17RA(His-Tagged) Binding Disruption Eu-HTRF Assay
(§2) An antibody directed against the FLAG tag of IL-17A (SEQ ID NO:1) is labeled with the HTRF donor chromophore (Europium-cryptate). IL-17A is present as a dimer that is “locked into” this quaternary structure due to the formation of loop-spanning […] disulfide bridges. The construct of IL-17RA used in the assay excludes the outer-membrane portion of the receptor and is fused to a C-terminal 10×His tag (SEQ ID NO:2). An antibody directed against the His tag of the IL-17RA chimera is labeled with the HTRF acceptor chromophore (“D2”). The fluorescence-resonance energy transfer (FRET) depends on the vicinity of the donor chromophore to the acceptor, and interruption of the binding between the IL-17A and IL-17RA causes the reduction/loss of FRET. Therefore, this assay allows to evaluate the compound effect on the binding IL-17A and IL-17RA by monitoring the fluorescence intensity of donor vs acceptor. The assay was run using either Protocol 1 or Protocol 2 described below.
(§3) Protocol 2. 40 nl of 2-fold serial diluted compound solution for total 22 dilution points is added into each well of a 1536-well, white, low-volume, non-binding plate (Greiner #782904), then 2 μl of FLAG tagged IL-17A at 2× final concentration (1 nM) in solution of PBS+0.01% Triton-X100 is added to each well. The assay plate is briefly centrifuged then incubated for 1 h at rt. A mixed solution is prepared containing 2×5 nM 10HIS×IL-17RA, 2×2.5 nM Eu-anti-FLAG (CISBIO), 2×5 nM D2-anti-HIS (CISBIO) in PBS+0.01% Triton-X100+200 mM Potassium Fluoride (Sigma 60238) and […] of mix is added to each well of the assay plate. The plate is briefly centrifuged then incubated for 2 h at rt. The HTRF intensities at the wavelength of donor (615 nm) and acceptor (665 nm) are measured using BMG Pherastar. The ratio between intensities at two wavelengths is calculated and plotted against the compound concentration and the data is fitted to a one-site competition model to yield IC50 of the compound.

[3] = target: T1, IL-17A(FLAG-Tagged): IL-17RA(His-Tagged); test: IL-17A(FLAG-tagged):IL-17RA(His-tagged) binding disruption Eu-HTRF assay, Protocol 1; details: FLAG tagged IL-17A at 2× final concentration (2.5 nM); simple average if tested more than once
Description: as §1, §2
as §3, with “Protocol 1:” for “Protocol 2.”, “40 nL” for “40 nl”, “concentration (2.5” for “concentration (1”, “donor (620” for “donor (615”

SMILES: COCCC(c1cnn2cc([C@@H](NC(=O)c3nonc3C)C3CCC(F)(F)CC3)nc2c1)N1C[C@@H](C(F)(F)F)NC1=O (single isomer, unassigned) [Example 40, N—((S)—(4,4-Difluorocyclohexyl)(7-((R*)-3-methoxy-1-((S)-2-oxo-4-(trifluoromethyl)imidazolidin-1-yl)propyl)imidazo[1,2-b]pyridazin-2-yl)methyl)-4-methyl-1,2,5-oxadiazole-3-carboxamide]
- IC50 ([1]; Homo sapiens, Keratinocyte): < 4 µM
- IC50 [2]: < 4 µM

SMILES: Cc1nonc1C(=O)N[C@H](c1cn2ncc([C@@H](C3CC3)N3C[C@@H](C4CC4)NC3=O)cc2n1)C1CCC(F)(F)CC1 [Example 17, N—[(S)—[7-[(R)-Cyclopropyl-[(4R)-4-cyclopropyl-2-oxo-imidazolidin-1-yl]methyl]imidazo[1,2-b]pyridazin-2-yl]-(4,4-difluorocyclohexyl)methyl]-4-methyl-1,2,5-oxadiazole-3-carboxamide]
- IC50 ([1]; Homo sapiens, Keratinocyte): < 4 µM
- IC50 [3]: < 4 µM

SMILES: Cc1nonc1C(=O)N[C@H](c1cn2ncc([C@@H](C3CC3)N3CC(CC(F)(F)F)NC3=O)cc2n1)C1CCC(F)(F)CC1 (single isomer, unassigned) [Example 19, N—((S)-(7-((R)-Cyclopropyl((R*)-2-oxo-4-(2,2,2-trifluoroethyl)imidazolidin-1-yl)methyl)imidazo[1,2-b]pyridazin-2-yl)(4,4-difluorocyclohexyl)methyl)-4-methyl-1,2,5-oxadiazole-3-carboxamide]
- IC50 ([1]; Homo sapiens, Keratinocyte): < 4 µM
- IC50 [3]: < 4 µM

SMILES: COC[C@H](c1cnn2cc([C@H](COC(C)(C)C(F)(F)F)NC(=O)c3ccnn3C(C)C)nc2c1)N1C[C@@H](C(F)(F)F)NC1=O [Example 11]
- IC50 ([1]; Homo sapiens, Keratinocyte): < 4 µM
- IC50 [3]: < 4 µM

SMILES: CC(C)n1nccc1C(=O)N[C@H](c1cn2ncc(CN3C[C@H](C)NC3=O)cc2n1)C1CCC(F)(F)CC1 [Example 5, N—((S)—(4,4-Difluorocyclohexyl)(7-(((S)-4-methyl-2-oxoimidazolidin-1-yl)methyl)imidazo[1,2-b]pyridazin-2-yl)methyl)-1-isopropyl-1H-pyrazole-5-carboxamide]
- IC50 ([1]; Homo sapiens, Keratinocyte): > 10 µM
- IC50 [3]: < 4 µM

SMILES: COC[C@H](c1cnn2cc([C@H](COC(C)(C)C(F)(F)F)NC(=O)c3nonc3C3CC3)nc2c1)N1C[C@@H](C(F)(F)F)NC1=O [Example 10]
- IC50 ([1]; Homo sapiens, Keratinocyte): < 4 µM
- IC50 [3]: < 4 µM

SMILES: Cc1nonc1C(=O)N[C@H](c1cn2ncc([C@@H](C3CC3)N3C[C@@H](C(C)C)NC3=O)cc2n1)C1CCC(F)(F)CC1 [Example 18, N—[(S)—[7-[(R)-Cyclopropyl-[(4R)-4-isopropyl-2-oxo-imidazolidin-1-yl]methyl]imidazo[1,2-b]pyridazin-2-yl]-(4,4-difluorocyclohexyl)methyl]-4-methyl-1,2,5-oxadiazole-3-carboxamide]
- IC50 ([1]; Homo sapiens, Keratinocyte): < 4 µM
- IC50 [3]: < 4 µM

SMILES: [2H]C([2H])([2H])C([2H])([2H])n1nccc1C(=O)N[C@@H](COC(C)(C)C(F)(F)F)c1cn2ncc([C@@H](COC)N3C[C@@H](C(F)(F)F)NC3=O)cc2n1 [Example 12]
- IC50 ([1]; Homo sapiens, Keratinocyte): < 4 µM
- IC50 [3]: < 4 µM

SMILES: O=C(N[C@H](c1cn2ncc(CN3C(=O)N[C@H]4CC(F)(F)C[C@H]43)cc2n1)C1CCC(F)(F)CC1)c1nonc1C1CC1 (single isomer, unassigned) [Example 8, 4-Cyclopropyl-N—((S)-(7-(((3aS*,6aR*)-5,5-difluoro-2-oxohexahydrocyclopenta[d]imidazol-1(2H)-yl)methyl)imidazo[1,2-b]pyridazin-2-yl)(4,4-difluorocyclohexyl)methyl)-1,2,5-oxadiazole-3-carboxamide]
- IC50 ([1]; Homo sapiens, Keratinocyte): < 4 µM
- IC50 [3]: < 4 µM

SMILES: COC[C@H](c1cnn2cc([C@H](COC(C)(C)C(F)(F)F)NC(=O)c3ncnn3C(C)C)nc2c1)N1C[C@@H](C(F)(F)F)NC1=O [Example 36, 1-Isopropyl-N—((R)-1-(7-((S)-2-methoxy-1-((S)-2-oxo-4-(trifluoromethyl)imidazolidin-1-yl)ethyl)imidazo[1,2-b]pyridazin-2-yl)-2-((1,1,1-trifluoro-2-methylpropan-2-yl)oxy)ethyl)-1H-1,2,4-triazole-5-carboxamide]
- IC50 ([1]; Homo sapiens, Keratinocyte): < 4 µM
- IC50 [3]: < 4 µM

SMILES: COC[C@H](c1cnn2cc([C@H](COC(C)(C)C(F)(F)F)NC(=O)c3nonc3C)nc2c1)N1C[C@@H](C(F)(F)F)NC1=O [Example 9]
- IC50 ([1]; Homo sapiens, Keratinocyte): < 4 µM
- IC50 [3]: < 4 µM

SMILES: CC(C)n1nccc1C(=O)N[C@H](c1cn2ncc(CN3CCNC3=O)cc2n1)C1CCC(F)(F)CC1 [Example 3, (S)—N-((4,4-Difluorocyclohexyl)(7-((2-oxoimidazolidin-1-yl)methyl)imidazo[1,2-b]pyridazin-2-yl)methyl)-1-isopropyl-1H-pyrazole-5-carboxamide]
- IC50 ([1]; Homo sapiens, Keratinocyte): < 4 µM
- IC50 [3]: < 4 µM

SMILES: C[C@H]1CN(Cc2cnn3cc([C@@H](NC(=O)c4nonc4C4CC4)C4CCC(F)(F)CC4)nc3c2)C(=O)N1 [Example 4, 4-Cyclopropyl-N—((S)—(4,4-difluorocyclohexyl)(7-(((S)-4-methyl-2-oxoimidazolidin-1-yl)methyl)imidazo[1,2-b]pyridazin-2-yl)methyl)-1,2,5-oxadiazole-3-carboxamide]
- IC50 ([1]; Homo sapiens, Keratinocyte): < 4 µM
- IC50 [3]: < 4 µM

SMILES: Cc1nonc1C(=O)N[C@H](c1cn2ncc(CN3CCNC3=O)cc2n1)C1CCC(F)(F)CC1 [Example 1, (S)—N-((4,4-Difluorocyclohexyl)(7-((2-oxoimidazolidin-1-yl)methyl)imidazo[1,2-b]pyridazin-2-yl)methyl)-4-methyl-1,2,5-oxadiazole-3-carboxamide]
- IC50 ([1]; Homo sapiens, Keratinocyte): 4 to 10 µM
- IC50 [3]: < 4 µM

SMILES: Cc1nonc1C(=O)N[C@H](c1cn2ncc([C@@H](C3CC3)N3CC(CC(F)(F)F)NC3=O)cc2n1)C1CCC(F)(F)CC1 (single isomer, unassigned) [Example 20, N—((S)-(7-((R)-Cyclopropyl((S*)-2-oxo-4-(2,2,2-trifluoroethyl)imidazolidin-1-yl)methyl)imidazo[1,2-b]pyridazin-2-yl)(4,4-difluorocyclohexyl)methyl)-4-methyl-1,2,5-oxadiazole-3-carboxamide]
- IC50 [1]: < 4 µM
- IC50 [3]: < 4 µM

SMILES: Cc1nonc1C(=O)N[C@H](c1cn2ncc([C@H](N3C[C@@H](C(F)(F)F)NC3=O)C3(C#N)CCC3)cc2n1)C1CCC(F)(F)CC1 [Example 22, N—((S)-(7-((S)—(1-Cyanocyclobutyl)((S)-2-oxo-4-(trifluoromethyl)imidazolidin-1-yl)methyl)imidazo[1,2-b]pyridazin-2-yl)(4,4-difluorocyclohexyl)methyl)-4-methyl-1,2,5-oxadiazole-3-carboxamide]
- IC50 ([1]; Homo sapiens, Keratinocyte): < 4 µM
- IC50 [3]: < 4 µM
